The values below are quoted from earlier work in patent US20080031932A1, “Transdermal atomoxetine formulations and associated methods” (Watson Laboratories, Inc., priority 2006, published 2008).

Data set [1] has as its system other receptor systems.
Data set [2] concerns the target serotonin reuptake (Homo sapiens, UniProt P31645).
Data set [3] concerns the target norepinephrine reuptake transporter (Homo sapiens, UniProt P23975). The note with it: compared to atomoxetine.

serotonin reuptake, sequence (P31645 whole entry): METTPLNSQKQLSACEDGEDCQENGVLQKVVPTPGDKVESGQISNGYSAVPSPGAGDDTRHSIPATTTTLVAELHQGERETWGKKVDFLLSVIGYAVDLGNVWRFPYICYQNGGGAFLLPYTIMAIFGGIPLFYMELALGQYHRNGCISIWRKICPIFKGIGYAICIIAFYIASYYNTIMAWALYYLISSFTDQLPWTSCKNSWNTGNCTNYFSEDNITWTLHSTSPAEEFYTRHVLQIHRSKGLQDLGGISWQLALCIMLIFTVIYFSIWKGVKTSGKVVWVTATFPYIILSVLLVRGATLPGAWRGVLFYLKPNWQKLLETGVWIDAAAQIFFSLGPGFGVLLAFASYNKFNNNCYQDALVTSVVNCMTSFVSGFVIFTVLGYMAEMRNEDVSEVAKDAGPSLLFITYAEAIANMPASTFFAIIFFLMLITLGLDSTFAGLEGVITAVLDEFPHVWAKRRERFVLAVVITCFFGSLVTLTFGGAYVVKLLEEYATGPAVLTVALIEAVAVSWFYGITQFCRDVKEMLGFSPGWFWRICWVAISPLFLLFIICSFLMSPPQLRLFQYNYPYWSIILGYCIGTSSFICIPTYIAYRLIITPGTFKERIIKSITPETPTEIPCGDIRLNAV
norepinephrine reuptake transporter, sequence (P23975 whole entry): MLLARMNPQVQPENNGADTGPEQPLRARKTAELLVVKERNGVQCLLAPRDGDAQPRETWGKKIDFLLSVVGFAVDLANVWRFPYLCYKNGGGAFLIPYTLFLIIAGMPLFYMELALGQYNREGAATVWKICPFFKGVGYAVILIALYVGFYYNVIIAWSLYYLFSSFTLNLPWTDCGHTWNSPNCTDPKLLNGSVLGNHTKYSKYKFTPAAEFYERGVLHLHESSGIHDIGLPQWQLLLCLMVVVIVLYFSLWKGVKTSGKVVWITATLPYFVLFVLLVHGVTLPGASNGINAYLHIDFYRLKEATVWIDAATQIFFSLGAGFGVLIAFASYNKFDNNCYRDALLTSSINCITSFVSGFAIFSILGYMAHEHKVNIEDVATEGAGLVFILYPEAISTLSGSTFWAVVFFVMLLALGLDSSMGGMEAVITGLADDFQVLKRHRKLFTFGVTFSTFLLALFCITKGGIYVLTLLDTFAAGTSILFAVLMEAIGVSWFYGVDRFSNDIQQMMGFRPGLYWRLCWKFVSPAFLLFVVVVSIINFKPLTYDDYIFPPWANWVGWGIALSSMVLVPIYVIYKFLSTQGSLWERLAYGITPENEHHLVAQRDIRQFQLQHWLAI

Regarding `CNCCC(Oc1ccc(O)cc1C)c1ccccc1` (stereo not drawn) [Example 4HA, 4-hydroxyatomoxetine], in data set [1], the “affinity to other receptor systems” value is “little affinity”. The serotonin reuptake inhibition result in data set [2] was “pharmacologically active serotonin reuptake inhibitor”.
Consider `CNCCC(Oc1ccccc1C)c1ccccc1` (single isomer, unassigned; (-)) [atomoxetine, (−)-N-methyl-3-phenyl-3-(o-tolyloxy)-propylamine], for which the plasma half-life result (individuals having normal activity in the CYP2D6 pathway) is “about 5 hours”. Further, the half-life result (individuals with reduced activity in the CYP2D6 pathway (poor metabolizers)) is “about 24 hours”.
As to `Cc1ccccc1OC(CCN)c1ccccc1` (stereo not drawn) [NDA, N-desmethylatomoxetine], the “inhibitory activity to the norepinephrine reuptake transporter” value in data set [3] is recorded as “less active”. The “affinity to other receptor systems” value in data set [1] was “little affinity”.
